According to paper PMC12881681 (Molecular Pharmacology, 2025):

Legend:
[1] = biological target: T1, human liver cytosolic AOX1 (Homo sapiens, UniProt Q06278); format: biochemical; set-up: Enzymatic reaction was initiated by adding human liver cytosol (100 μg); tissue Corning, Inc. (Gentest brand) 452115; host or cells: human liver cytosol, pool of 150 donors; conditions: 5 mM agent, 10 min; erlotinib 1.5 μM, analogs 2 μM
T1 sequence (Q06278 1-1338): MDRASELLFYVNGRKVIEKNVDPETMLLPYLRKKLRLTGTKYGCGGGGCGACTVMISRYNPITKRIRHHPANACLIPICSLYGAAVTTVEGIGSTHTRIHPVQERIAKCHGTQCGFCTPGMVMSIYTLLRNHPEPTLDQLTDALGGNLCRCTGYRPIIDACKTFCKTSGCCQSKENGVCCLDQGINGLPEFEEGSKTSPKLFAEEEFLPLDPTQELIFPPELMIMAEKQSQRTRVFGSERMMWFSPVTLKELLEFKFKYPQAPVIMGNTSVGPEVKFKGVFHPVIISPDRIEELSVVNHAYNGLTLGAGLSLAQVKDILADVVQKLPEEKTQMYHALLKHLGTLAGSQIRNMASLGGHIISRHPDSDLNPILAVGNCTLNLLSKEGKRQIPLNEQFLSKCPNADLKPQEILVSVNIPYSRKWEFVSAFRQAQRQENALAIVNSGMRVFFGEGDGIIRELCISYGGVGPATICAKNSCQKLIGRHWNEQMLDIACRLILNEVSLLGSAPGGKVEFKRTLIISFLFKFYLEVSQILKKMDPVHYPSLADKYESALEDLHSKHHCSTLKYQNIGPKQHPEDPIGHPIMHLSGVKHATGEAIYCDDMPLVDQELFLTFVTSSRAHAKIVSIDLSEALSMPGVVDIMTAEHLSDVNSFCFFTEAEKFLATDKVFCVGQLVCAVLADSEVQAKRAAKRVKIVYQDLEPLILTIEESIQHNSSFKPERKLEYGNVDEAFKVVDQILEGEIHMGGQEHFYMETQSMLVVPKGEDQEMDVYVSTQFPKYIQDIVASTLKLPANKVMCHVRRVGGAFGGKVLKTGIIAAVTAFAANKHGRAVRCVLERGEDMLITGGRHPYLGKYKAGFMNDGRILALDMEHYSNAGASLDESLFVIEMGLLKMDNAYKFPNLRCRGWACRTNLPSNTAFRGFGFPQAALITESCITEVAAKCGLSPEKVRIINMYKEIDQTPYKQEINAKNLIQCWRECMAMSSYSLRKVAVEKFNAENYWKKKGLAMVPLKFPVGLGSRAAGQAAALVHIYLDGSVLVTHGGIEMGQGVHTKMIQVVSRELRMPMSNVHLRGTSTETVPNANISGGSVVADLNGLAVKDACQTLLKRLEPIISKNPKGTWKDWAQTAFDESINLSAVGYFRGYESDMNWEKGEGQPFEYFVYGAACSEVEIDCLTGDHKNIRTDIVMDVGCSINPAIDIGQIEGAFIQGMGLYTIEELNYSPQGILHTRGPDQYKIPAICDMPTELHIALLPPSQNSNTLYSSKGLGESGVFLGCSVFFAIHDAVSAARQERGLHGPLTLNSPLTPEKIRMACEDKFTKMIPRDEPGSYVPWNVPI
Procedure: Potassium ferricyanide (5 mM; oxidizing agent), sodium dithionite (5 mM; reducing agent), or potassium phosphate buffer (vehicle for oxidizing/reducing agent) was preincubated with human liver cytosol (200 μg protein) in a total volume of 100 μL at 37 °C for 10 minutes. […] After a 0 or 6-minute preincubation duration, an aliquot (10 μL) of the secondary incubation mixture was transferred to a prewarmed tertiary incubation mixture (total volume of 200 μL) containing potassium phosphate buffer and carbazeran (15 μM), which yielded a 20-fold dilution of the secondary incubation mixture. The tertiary incubation mixture was incubated for 5 minutes at 37 °C before the enzymatic reaction was terminated with 200 μL of ice-cold acetonitrile containing carbazeran-d4 (2.5 nM final concentration; internal standard for 4-oxo-carbazeran). The residual AOX1 enzyme activity was determined by the carbazeran 4-oxidation assay.

[2] = ref erlotinib (TARCEVA), package insert, 2016; cited from earlier work
[3] = clinical phase I study; cited from earlier work
human recombinant AOX1 = biological target: T2, human recombinant AOX1 (Homo sapiens, UniProt Q06278); assay: Time-dependent inactivation of carbazeran 4-oxidation by human recombinant AOX1; format: biochemical; conditions: each 10 μM (raloxifene 0.02 μM), 30-minute preincubation, vs vehicle control without preincubation
T2 construct: purchased Cypex Ltd CYP150
T2 sequence (Q06278 1-1338): T1 sequence (Q06278 1-1338)
Procedure: Carbazeran 4-oxidation and O^6-benzylguanine 8-oxidation were deployed as AOX1-selective catalytic markers.[27] The assay conditions (amount of cytosolic protein, incubation time, and substrate concentration) for carbazeran 4-oxidation catalyzed by human recombinant AOX1 and human/rat/mouse liver cytosols were optimized previously.[7]^,[25]
Enzymatic reaction was initiated by adding human liver cytosol (100 μg). After the specified preincubation duration, an aliquot (10 μL) of the preincubation mixture was transferred to 190 μL of a prewarmed (for 3 minutes at 37 °C) secondary incubation mixture (total volume of 200 μL) containing potassium phosphate buffer and carbazeran (15 μM) or O^6-benzylguanine (150 μM), which yielded a 20-fold dilution of the primary incubation mixture. The secondary incubation mixture was incubated for 5 minutes at 37 °C before the enzymatic reaction was terminated with 200 μL of ice-cold acetonitrile containing carbazeran-d4 (2.5 nM final concentration; internal standard for 4-oxo-carbazeran) or tolbutamide (25 nM final concentration; internal standard for 8-oxo-O^6-benzylguanine). Each sample was immediately mixed by vortex, placed on ice, centrifuged at 16,000g for 15 minutes at 4 °C and stored at –30 °C until ultra-high performance liquid chromatography–tandem mass spectrometry (UPLC-MS/MS) analysis. For enzyme inactivation assays involving rat and mouse liver cytosol and recombinant AOX1 assays, the experimental conditions were similar to those of human liver cytosol, except that the amount of cytosolic protein was 200 μg (rat) and 150 μg (mouse), respectively, and the incubation time of the secondary incubation mixture was 60 minutes. For the recombinant AOX1 enzyme assay, the amount of enzyme was 100 μg, the incubation time of the secondary incubation mixture was 15 minutes, and the total volume of the primary and secondary incubation mixtures was reduced to 100 μL.
An aliquot (10 μL) of the primary incubation mixture was transferred to a secondary incubation mixture containing carbazeran (15 μM) and incubated for (A) 180, (B) 5, or (C, D) 120 minutes.

| SMILES | effect of preincubating cytosol with potassium ferricyanide or sodium dithionite on AOX1 inactivation [1] | Plasma fu [2] | effect on plasma concentration of OSI-930 [3] | decrease in carbazeran 4-oxidation (human recombinant AOX1) [%] |
| --- | --- | --- | --- | --- |
| C#Cc1cccc(Nc2nc(C)nc3cc(OCCOC)c(OCCOC)cc23)c1 [2-Methylerlotinib, 2-methylerlotinib] | neither sodium dithionite nor potassium ferricyanide affected |  |  |  |
| C#Cc1cccc(Nc2ncnc3cc(OCCOC)c(OCCOC)cc23)c1 [Erlotinib] | neither sodium dithionite nor potassium ferricyanide affected | e Cmax,u = plasma fu × Cmax. Plasma fu = 0.07, based on erlotinib (TARCEVA), package insert, 2016. For O-desmethylerlotinib and O-didesmethylerlotinib, the fu is assumed to be similar to the parent drug. | increase |  |
| C#Cc1cccc(Nc2ncnc3cc(OCCO)c(OCCO)cc23)c1 [O-Didesmethylerlotinib, O-didesmethylerlotinib] |  |  |  | 94 |
| C#Cc1cccc(Nc2ncnc3cc(OCCOC)c(OCCO)cc23)c1 [O-Desmethylerlotinib, O-desmethylerlotinib] |  |  |  | 91 |
